The term Ki denotes a measure of affinity in units of concentration, obtained from inhibition or displacement. Low values mean a stronger hold on the target, high ones a looser hold on the target.

Results on 3 compounds are retold here after patent publication EP0260057A2, “2-Oxo-4-carboxy-pyrimidines” (THE UNIVERSITY OF MELBOURNE, priority 1986, dated 1988).

The target in the experiment is T1, dihydroorotase (Mesocricetus auratus, UniProt P08955).
T1 construct: purified by an established procedure from a mutant hamster cell line which overproduces the target enzyme; endogenous in cells; host or cells: mutant hamster cell line overproducing the enzyme more than 100-fold; enzyme purified from these cells
T1 sequence (P08955 whole entry): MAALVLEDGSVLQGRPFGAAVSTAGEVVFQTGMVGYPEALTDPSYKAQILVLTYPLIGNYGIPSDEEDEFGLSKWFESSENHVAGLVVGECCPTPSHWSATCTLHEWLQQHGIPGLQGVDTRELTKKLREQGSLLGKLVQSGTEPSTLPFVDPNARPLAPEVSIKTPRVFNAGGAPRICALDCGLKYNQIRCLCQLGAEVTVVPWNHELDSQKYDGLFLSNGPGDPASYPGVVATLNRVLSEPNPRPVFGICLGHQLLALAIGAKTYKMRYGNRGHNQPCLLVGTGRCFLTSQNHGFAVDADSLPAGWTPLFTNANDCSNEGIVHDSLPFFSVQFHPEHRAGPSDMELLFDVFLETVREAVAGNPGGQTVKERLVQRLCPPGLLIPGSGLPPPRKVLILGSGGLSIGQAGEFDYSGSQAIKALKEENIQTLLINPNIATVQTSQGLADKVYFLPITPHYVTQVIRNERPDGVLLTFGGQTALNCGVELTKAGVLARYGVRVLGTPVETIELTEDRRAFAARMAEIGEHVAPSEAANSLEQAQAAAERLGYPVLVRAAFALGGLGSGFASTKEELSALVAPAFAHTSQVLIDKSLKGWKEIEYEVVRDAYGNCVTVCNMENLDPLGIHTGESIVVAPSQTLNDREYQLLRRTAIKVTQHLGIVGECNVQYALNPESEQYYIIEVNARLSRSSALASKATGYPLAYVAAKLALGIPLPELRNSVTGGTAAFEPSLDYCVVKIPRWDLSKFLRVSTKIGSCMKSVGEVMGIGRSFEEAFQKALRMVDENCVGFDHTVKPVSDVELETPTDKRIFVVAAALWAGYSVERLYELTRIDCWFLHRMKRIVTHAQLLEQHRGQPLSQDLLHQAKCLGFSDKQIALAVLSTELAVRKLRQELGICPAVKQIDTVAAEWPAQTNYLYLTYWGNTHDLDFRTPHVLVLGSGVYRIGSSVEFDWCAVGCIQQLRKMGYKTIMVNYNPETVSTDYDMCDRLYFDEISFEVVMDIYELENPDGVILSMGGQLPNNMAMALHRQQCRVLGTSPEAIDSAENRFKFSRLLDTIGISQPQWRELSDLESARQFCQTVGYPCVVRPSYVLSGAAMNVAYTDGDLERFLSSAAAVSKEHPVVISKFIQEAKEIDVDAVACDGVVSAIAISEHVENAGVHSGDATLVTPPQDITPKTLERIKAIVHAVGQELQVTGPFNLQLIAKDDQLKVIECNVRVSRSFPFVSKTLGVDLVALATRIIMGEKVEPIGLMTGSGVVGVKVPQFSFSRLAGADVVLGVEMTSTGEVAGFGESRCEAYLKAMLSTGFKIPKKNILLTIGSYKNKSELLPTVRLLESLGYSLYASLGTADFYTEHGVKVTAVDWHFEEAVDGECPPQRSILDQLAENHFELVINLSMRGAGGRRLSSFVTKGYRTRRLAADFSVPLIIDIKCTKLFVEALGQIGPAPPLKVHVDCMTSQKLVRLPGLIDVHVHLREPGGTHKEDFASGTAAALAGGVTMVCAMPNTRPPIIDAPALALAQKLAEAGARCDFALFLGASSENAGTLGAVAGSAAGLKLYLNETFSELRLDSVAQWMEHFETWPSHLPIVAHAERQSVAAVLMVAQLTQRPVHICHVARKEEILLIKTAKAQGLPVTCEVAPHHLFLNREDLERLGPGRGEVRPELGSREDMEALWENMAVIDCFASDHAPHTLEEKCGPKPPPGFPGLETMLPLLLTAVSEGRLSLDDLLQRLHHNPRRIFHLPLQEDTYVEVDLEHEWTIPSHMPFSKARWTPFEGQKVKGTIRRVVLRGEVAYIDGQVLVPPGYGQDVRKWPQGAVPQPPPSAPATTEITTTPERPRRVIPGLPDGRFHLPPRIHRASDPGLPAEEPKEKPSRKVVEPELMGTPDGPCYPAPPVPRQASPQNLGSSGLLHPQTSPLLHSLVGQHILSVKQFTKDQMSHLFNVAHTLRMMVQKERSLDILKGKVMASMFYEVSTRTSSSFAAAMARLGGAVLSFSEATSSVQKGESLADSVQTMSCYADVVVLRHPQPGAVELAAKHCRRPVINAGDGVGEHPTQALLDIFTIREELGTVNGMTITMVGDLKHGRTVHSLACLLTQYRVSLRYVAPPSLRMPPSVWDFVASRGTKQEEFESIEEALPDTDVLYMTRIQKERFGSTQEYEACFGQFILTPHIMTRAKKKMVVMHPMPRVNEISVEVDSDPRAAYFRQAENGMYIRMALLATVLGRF
In words: Dihydroorotase inhibition assay (conversion of L-[14C]dihydroorotate to N-[14C]carbamyl-L-aspartate). The experiment is classed as biochemical, hamster. On the procedure: Dihydroorotase has been purified by an established procedure from a mutant hamster cell line which overproduces the target enzyme by more than 100-fold (P.F. Coleman, D.P. Suttle and G.R. Stark (1978) in "Methods in Enzymology" (P.A. Hoffee and M.E. Jones eds.) Vol. 51, pp 121-134, Academic Press, New York; P.F. Coleman D.P. Suttle and G.R. Stark (1977) J. Biol. Chem. 252, 6379-6385). Purified dihydroorotase was stored at -70°C in a solution containing 30% (v/v) dimethyl sulphoxide, 5% (v/v) glycerol, 50 mM KCl, 4 mM L-glutamine, 4 mM L-aspartate, 0.1 mM EDTA and 1 mM dithiothreitol.
Dihydroorotase catalyses the conversion of N-carbamyl-L-aspartate to L-dihydroorotate. To assess the effects of a potential inhibitor of this target enzyme, the rate of conversion of L-dihydroorotate to N-carbamyl-L-aspartate catalysed by dihydroorotase was measured in the presence of a range of concentrations of the inhibitor. For a tight-binding inhibitor like TDHO, extremely low concentrations are sufficient to abolish all dihydroorotase activity. To illustrate the inhibitory potency of TDHO, results of the following experiment are presented. Assay mixtures for dihydroorotase activity contained in a total volume of 25 ul, 50 mM K.Hepes buffer pH 7.4, 5% (v/v) glycerol 12.5 µM L-[¹⁴C]dihydroorotate (specific radioactivity 47.1 Ci/mol), and TDHO concentrations ranging from 0 - 1.50 µM containing a 30-fold molar excess of ZnCl₂. Catalysis was initiated by addition of 39 ng of dihydroorotase. The rate of conversion of L-[¹⁴C]dihydroorotate to N-[¹⁴C]carbamyl-L-aspartate was measured in the presence of different concentrations of TDHO, using established procedures (R.I. Christopherson, T. Matsuura and M.E. Jones (1978) Analytical Biochemistry 100, 184-187). The assay mixture lacking TDHO had the fastest reaction velocity while the lowest velocity measured was in the presence of the highest concentration of TDHO. The results data are plotted as the reciprocal of reaction velocity (l/v) versus the concentration of TDHO from which a value for the dissociation constant (Ki value) for TDHO from the enzyme-TDHO complex can be obtained.
Assay mixtures for dihydroorotase activity contained in a total volume of 25 µl:50 mM K.Hepes buffer pH 7.4, 5% (v/v) glycerol, 12.5 µM L-[¹⁴C]dihydroorotate (specific radioactivity 47.1 Ci/mol), and HDDP concentrations ranging from 0 - 5 µM. Catalysis was initiated by addition of 39 ng of dihydroorotase. The rate of conversion of L-[¹⁴C]dihydroorotate to N-[¹⁴C]carbamyl-L-aspartate was measured in the presence of different concentrations of HDDP, in a similar manner to Test 3.

In the case of `O=C1NC(C(=O)O)=CC(C(=O)O)N1` (stereo not shown) [HDDP, 2-oxo-1,2,3,6-tetrahydropyrimidine-4,6-dicarboxylic acid], the inhibition constant Ki (HDDP 0 - 5 µM, pH 7.4, 12.5 µM L-[¹⁴C]dihydroorotate, no ZnCl₂ mentioned) came out at 480 nM.

As for `O=C1NC(=S)CC(C(=O)O)N1` (stereo not shown) [TDHO, Hexahydro-2-oxo-6-thioxo-4-pyrimidinecarboxylic acid], the Ki is 53 nM (TDHO containing a 30-fold molar excess of ZnCl₂, pH 7.4, 12.5 µM L-[¹⁴C]dihydroorotate) and 4500 nM (free acid of TDHO, in the absence of Zn²⁺).

In the case of ZnCl₂ [reference compound], the inhibitory effect result (ZnCl₂ alone, at the same concentrations as in the TDHO experiment) was “moderate inhibitory effect”.
